PubChem BioAssay (NCI)
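Tested at 5 concentrations; 48 h exposure; 96-well plates; endpoints linearly interpolated, else capped at highest concentration. TGI marks complete inhibition of growth.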

Columns and labels:
Test in all cases: inhibition of tumour cell growth, NCI panel, 48 h
[1] = tested on: 786-0 renal
[2] = tested on: A498 renal
[3] = tested on: A549 NSCLC
[4] = tested on: ACHN renal
[5] = tested on: BT-549 breast
[6] = tested on: CAKI-1 renal
[7] = tested on: COLO 205 colon
[8] = tested on: DU-145 prostate
[9] = tested on: EKVX NSCLC
[10] = tested on: HCC-2998 colon
[11] = tested on: HCT-116 colon
[12] = tested on: HCT-15 colon
[13] = tested on: HOP-62 NSCLC
[14] = tested on: HOP-92 NSCLC
[15] = tested on: HS 578T breast
[16] = tested on: HT29 colon
[17] = tested on: IGROV1 ovarian
[18] = tested on: KM12 colon
[19] = tested on: LOX IMVI melanoma
[20] = tested on: M14 melanoma
[21] = tested on: MALME-3M melanoma
[22] = tested on: MCF7 breast
[23] = tested on: MDA-MB-231 breast
[24] = tested on: MDA-MB-435
[25] = tested on: MDA-N
[26] = tested on: NCI-H226 lung
[27] = tested on: NCI-H23 lung
[28] = tested on: NCI-H460 lung
[29] = tested on: NCI/ADR-RES ovarian
[30] = tested on: OVCAR-3 ovarian
[31] = tested on: OVCAR-4 ovarian
[32] = tested on: OVCAR-5 ovarian
[33] = tested on: OVCAR-8 ovarian
[34] = tested on: PC-3 prostate
[35] = tested on: RPMI-8226 leukemia
[36] = tested on: RXF 393 renal
[37] = tested on: SF-268 CNS
[38] = tested on: SF-295 CNS
[39] = tested on: SF-539 CNS
[40] = tested on: SK-MEL-2 melanoma
[41] = tested on: SK-MEL-28 melanoma
[42] = tested on: SK-MEL-5 melanoma
[43] = tested on: SK-OV-3 ovarian
[44] = tested on: SN12C renal
[45] = tested on: SNB-19 CNS
[46] = tested on: SNB-75 CNS
[47] = tested on: SR leukemia
[48] = tested on: T-47D breast
[49] = tested on: TK-10 renal
[50] = tested on: U251 CNS
[51] = tested on: UACC-257 melanoma
[52] = tested on: UACC-62 melanoma
[53] = tested on: UO-31 renal
[54] = tested on: CCRF-CEM leukemia
[55] = tested on: DMS 114 small cell lung
[56] = tested on: DMS 273 small cell lung
[57] = tested on: HL-60(TB) leukemia
[58] = tested on: K-562 leukemia
[59] = tested on: KM20L2 colon
[60] = tested on: M19-MEL melanoma
[61] = tested on: MOLT-4 leukemia
[62] = tested on: NCI-H522 lung
[63] = tested on: SNB-78 CNS
[64] = tested on: SW-620 colon
[65] = tested on: XF 498 CNS

Which results are given for CN(C)CC1CCCc2ccccc2C1=O (configuration not stated)?
TGI [1]: 2.8 µM; TGI [2]: 49.6 µM; TGI [3]: 39.5 µM; TGI [4]: 3.3 µM; TGI [5]: 9.8 µM; TGI [6]: 6.25 µM; TGI [7]: 12.5 µM; TGI [8]: 10.7 µM; TGI [9]: 3.4 µM; TGI [10]: 12 µM; TGI [11]: 3.26 µM; TGI [12]: 4.55 µM; TGI [13]: 33.7 µM; TGI [14]: 34.8 µM; TGI [15]: 16.3 µM; TGI [16]: 3.38 µM; TGI [17]: 4.17 µM; TGI [18]: 4.69 µM; TGI [19]: 4.49 µM; TGI [20]: 3.42 µM; TGI [21]: 3.62 µM; TGI [22]: 0.644 µM; TGI [23]: 9.7 µM; TGI [24]: 2.62 µM; TGI [25]: 3.07 µM; TGI [26]: 48.8 µM; TGI [27]: 15.2 µM; TGI [28]: 39.9 µM; TGI [29]: 17.5 µM; TGI [30]: 3.57 µM; TGI [31]: 2.01 µM; TGI [32]: 33.5 µM; TGI [33]: 4.29 µM; TGI [34]: 3 µM; TGI [35]: 0.21 µM; TGI [36]: 11.7 µM; TGI [37]: 5.55 µM; TGI [38]: 32.5 µM; TGI [39]: 10.1 µM; TGI [40]: 4 µM; TGI [41]: 13 µM; TGI [42]: 15.9 µM; TGI [43]: 32.7 µM; TGI [44]: 24.2 µM; TGI [45]: 26.4 µM; TGI [46]: 56.2 µM; TGI [47]: > 100 µM; TGI [48]: 17 µM; TGI [49]: 14.7 µM; TGI [50]: 3.12 µM; TGI [51]: 18.9 µM; TGI [52]: 6.18 µM; TGI [53]: 3.45 µM

For CNc1ccc([N+](=O)[O-])c2c(NCCCN(C)C)ccnc12, which TGI [1] is on record?
Its TGI is greater than 100 µM.

And the TGI [3]?
Its TGI is greater than 100 µM.

What about the TGI [4] of the same compound?
Its TGI is greater than 100 µM.

What about the TGI [6] of the same compound?
Its TGI is greater than 100 µM.

And the TGI [54]?
The TGI was greater than 100 µM.

What about the TGI [7] of the same compound?
The TGI was greater than 100 µM.

And the TGI [55]?
The TGI was greater than 100 µM.

What about the TGI [56] of the same compound?
The TGI was greater than 100 µM.

What about the TGI [9] of the same compound?
Its TGI is greater than 100 µM.

And the TGI [10]?
Its TGI is greater than 100 µM.

And the TGI [11]?
Its TGI is greater than 100 µM.

What about the TGI [12] of the same compound?
The TGI was greater than 100 µM.

And the TGI [57]?
Its TGI is greater than 100 µM.

What about the TGI [13] of the same compound?
Its TGI is greater than 100 µM.

And the TGI [16]?
Its TGI is greater than 100 µM.

And the TGI [17]?
Its TGI is greater than 100 µM.

What about the TGI [58] of the same compound?
Its TGI is greater than 100 µM.

And the TGI [18]?
The TGI was greater than 100 µM.

What about the TGI [59] of the same compound?
The TGI was greater than 100 µM.

And the TGI [19]?
Its TGI is greater than 100 µM.

What about the TGI [20] of the same compound?
Its TGI is greater than 100 µM.

What about the TGI [60] of the same compound?
Its TGI is greater than 100 µM.

What about the TGI [21] of the same compound?
Its TGI is greater than 100 µM.

What about the TGI [61] of the same compound?
The TGI was greater than 100 µM.

What about the TGI [26] of the same compound?
Its TGI is greater than 100 µM.

And the TGI [27]?
Its TGI is greater than 100 µM.

And the TGI [28]?
Its TGI is greater than 100 µM.

What about the TGI [62] of the same compound?
The TGI was greater than 100 µM.

What about the TGI [30] of the same compound?
Its TGI is greater than 100 µM.

What about the TGI [31] of the same compound?
The TGI was greater than 100 µM.

What about the TGI [32] of the same compound?
The TGI was greater than 100 µM.

And the TGI [33]?
Its TGI is greater than 100 µM.

What about the TGI [35] of the same compound?
The TGI was greater than 100 µM.

And the TGI [37]?
The TGI was greater than 100 µM.

And the TGI [38]?
Its TGI is greater than 100 µM.

And the TGI [39]?
Its TGI is greater than 100 µM.

What about the TGI [40] of the same compound?
Its TGI is greater than 100 µM.

What about the TGI [41] of the same compound?
Its TGI is greater than 100 µM.

And the TGI [43]?
Its TGI is greater than 100 µM.

And the TGI [44]?
The TGI was greater than 100 µM.

What about the TGI [45] of the same compound?
Its TGI is greater than 100 µM.

And the TGI [63]?
The TGI was greater than 100 µM.

What about the TGI [47] of the same compound?
Its TGI is greater than 100 µM.

And the TGI [64]?
Its TGI is greater than 100 µM.

What about the TGI [49] of the same compound?
Its TGI is greater than 100 µM.

And the TGI [50]?
The TGI was greater than 100 µM.

And the TGI [51]?
The TGI was greater than 100 µM.

And the TGI [53]?
The TGI was greater than 100 µM.

And the TGI [65]?
Its TGI is greater than 100 µM.
